Data as given in ChEMBL document CHEMBL6092147, “Design of inhibitors of SARS-CoV-2 papain-like protease deriving from GRL0617: Structure-activity relationships” (Bioorg Med Chem, 2024).

Assays:
[1] = biological target: T1, Replicase polyprotein 1ab (Severe acute respiratory syndrome coronavirus 2, UniProt P0DTD1); experiment: Inhibition of SARS-CoV-2 Main protease
[2] = biological target: T1, Replicase polyprotein 1ab; experiment: Inhibition of SARS-CoV-2 papain-like protease (PLpro) extracted from Escherichia coli BL21 (DE3) cells using RLRGG-AMC as substrate preincubated for 10 mins followed by substrate addition measured for 35 mins by FRET analysis
[3] = biological target: T1, Replicase polyprotein 1ab; experiment: Inhibition of SARS-CoV2 PLpro extracted from Escherichia coli using Z-RLRGG-AMC as substrate incubated for 30 mins by fluorescence based analysis
[4] = biological target: T1, Replicase polyprotein 1ab; experiment: Inhibition of SARS-CoV-2 wild type PLpro (1563 to 1878 residues) extracted from Escherichia coli Rosetta 2 (DE3) cells by Fluorescence polarization assay
[5] = biological target: T1, Replicase polyprotein 1ab; experiment: Binding affinity to SARS-CoV-2 3CL protease assessed as dissociation constant by SPR analysis
[6] = biological target: T1, Replicase polyprotein 1ab; experiment: Inhibition of SARS-CoV-2 3CL protease by FRET assay
[7] = biological target: T1, Replicase polyprotein 1ab; experiment: Binding affinity to SARS-CoV-2 papain-like protease extracted from Escherichia coli BL21 (DE3) cells assessed as inhibition constant by SPR analysis
[8] = biological target: T1, Replicase polyprotein 1ab; experiment: Inhibition of SARS-CoV-2 3CL protease extracted from Escherichia coli BL21 (DE3) Rosetta cells using DabcylKNSTLQSGLRKE-Edan as substrate preincubated for 60 mins followed by substrate addition and measured after 20 mins by FRET assay
[9] = biological target: T1, Replicase polyprotein 1ab; experiment: Inhibition of N-terminal 6His-tagged SARS-CoV-2 wild type PLpro extracted from Escherichia coli BL21 (DE3) cells incubated for 60 mins by FRET assay
[10] = biological target: T1, Replicase polyprotein 1ab; experiment: Binding affinity to SARS-CoV-2 3CL protease extracted from Escherichia coli BL21 (DE3) Rosetta cells assessed as dissociation constant
[11] = biological target: T1, Replicase polyprotein 1ab; experiment: Binding affinity to SARS-CoV-2 Main protease assessed as inhibition constant by SPR analysis
[12] = biological target: T1, Replicase polyprotein 1ab; experiment: Inhibition of C-terminal His-tagged SARS-CoV-2 papain-like protease (PLpro) (1564 to 1876 residues) extracted from Escherichia coli BL21 (DE3) cells using Dabcyl-KTSAVLQ/SGFRKME as substrate incubated for 60 mins by FRET assay
[13] = biological target: T1, Replicase polyprotein 1ab; experiment: Inhibition of SARS-CoV-2 papain-like protease (PLpro) by FRET analysis
[14] = biological target: T1, Replicase polyprotein 1ab; experiment: Inhibition of SARS-CoV-2 PLpro using Ubiquitin-AMC as substrate by enzymatic assay
[15] = biological target: T1, Replicase polyprotein 1ab; experiment: Inhibition of SARS-CoV-2 papain-like protease (PLpro) by enzymatic assay
[16] = biological target: T1, Replicase polyprotein 1ab; experiment: Inhibition of His-tagged SARS-CoV-2 papain-like protease (PLpro) incubated for 30 mins by FRET assay

Cc1ccc(NC(=O)[C@H]2CCCCN2)cc1C(=O)N[C@H](C)c1cccc2ccccc12
IC50 [1]: 300 nM

Cc1ccc(NC2CCN(S(C)(=O)=O)CC2)cc1C(=O)N[C@H](C)c1cccc2ccccc12
IC50 [2]: 1900 nM

Cc1ccc(NCC(C)(C)N)cc1C(=O)N[C@H](C)c1cccc2ccccc12
IC50 [2]: 1800 nM

Cc1ccc(NC(=O)[C@@H](N)CCCCN)cc1C(=O)N[C@H](C)c1cccc2ccccc12
IC50 [3]: 1700 nM

COc1cc(CNC(=O)C2CCN(C(C)c3cccc4ccccc34)CC2)ccn1 (racemic)
IC50 [4]: 1100 nM

Cc1ccc(NC(=O)CCN)cc1C(=O)N[C@H](C)c1cccc2ccccc12
IC50 [2]: 1800 nM

CCC(C(=O)Nc1cc(NC2CNC2)ccc1C)n1cc(Br)cc2nc(SCc3ccc(F)cc3)nc1-2 (racemic)
Kd [5]: 100 nM | IC50 [6]: 70 nM

CCC(C(=O)Nc1cc(NC2CCNC2)ccc1C)n1cccc2nc(SCc3ccc(F)cc3)nc1-2 (racemic)
Kd [5]: 250 nM

Cc1ccc(NC(=O)CN)cc1C(=O)N[C@H](C)c1cccc2ccccc12
IC50 [1]: 3300 nM

Cc1ccc(OCCN(C)C)cc1C(=O)N[C@H](C)c1cc(-c2cccs2)cc(-c2ccc(CN)s2)c1
Ki [7]: 70 nM

Cc1ccc(NC(=O)[C@@H]2CCCCN2)cc1C(=O)N[C@H](C)c1cccc2ccccc12
IC50 [1]: 1300 nM

CCC(C(=O)Nc1cc(NC2CNC2)ccc1C)n1cc(Cl)cc2nc(SCc3ccc(F)cc3)nc1-2 (racemic)
Kd [5]: 100 nM | IC50 [6]: 90 nM

CCC(C(=O)Nc1ccccc1C)n1cc(F)cc2nc(SCc3ccc(F)cc3)nc1-2 (racemic)
IC50 [8]: 5090 nM

Cc1ccc(NCC2CCN2)cc1C(=O)N[C@H](C)c1cccc2ccccc12 (mixture of isomers)
IC50 [1]: 900 nM

COc1cc(CNC(=O)C2CCN(C(C)c3c(OC)ccc4ccccc34)CC2)ccn1 (racemic)
IC50 [9]: > 98000 nM

CCC(C(=O)Nc1cc(NC2COC2)ccc1C)n1cc(F)cc2nc(SCc3ccc(F)cc3)nc1-2 (racemic)
IC50 [8]: 400 nM | Kd [10]: 400 nM

Cc1ccc(NC(=O)[C@@]2(C)CCCN2)cc1C(=O)N[C@H](C)c1cccc2ccccc12
IC50 [2]: 1800 nM

Cc1ccc(OCCN(C)C)cc1C(=O)N[C@H](C)c1cc(-c2cnn(C)c2)cc(-c2cnn(C)c2)c1
Ki [11]: 30 nM

Cc1ccc(OCCN(C)C)cc1C(=O)N[C@H](C)c1cc(-c2cnn(C)c2)cc(-c2cnn(C(C)C)c2)c1
Ki [7]: 40 nM

COc1cc(CNC(=O)C2CN(C(C)c3cccc4ccccc34)C2)ccn1 (racemic)
IC50 [4]: 27300 nM

CCC(C(=O)Nc1cc(NC2CCNCC2)ccc1C)n1cc(Br)cc2nc(SCc3ccc(F)cc3)nc1-2 (racemic)
Kd [5]: 170 nM | IC50 [6]: 50 nM

Cc1ccc(OCCN(C)C)cc1C(=O)N[C@H](C)c1cc(-c2cnn(CF)c2)cc(-c2ccn(C)n2)c1
Ki [7]: 30 nM

CNCCCNc1ccc(C)c(C(=O)N[C@H](C)c2cccc3ccccc23)c1
IC50 [3]: 1500 nM

Cc1ccc(NC2CCN(C[C@H]3CCCN3)CC2)cc1C(=O)N[C@H](C)c1cccc2ccccc12
IC50 [2]: 1800 nM

CCC(C(=O)Nc1cc(NC2CCNC2)ccc1C)n1cc(Cl)cc2nc(SCc3ccc(F)cc3)nc1-2 (racemic)
Kd [5]: 100 nM | IC50 [6]: 70 nM

C[C@H](c1cccc2ccccc12)N(C)Cc1ccc2cccc(O)c2n1
IC50 [12]: > 20000 nM

CCC(C(=O)Nc1cc(NC2CCOC2)ccc1C)n1cc(Br)cc2nc(SCc3ccc(F)cc3)nc1-2 (racemic)
IC50 [8]: 500 nM | Kd [10]: 1400 nM

CCC(C(=O)Nc1cc(NC2COC2)ccc1C)n1cccc2nc(SCc3ccc(F)cc3)nc1-2 (racemic)
IC50 [8]: 300 nM

Cc1ccc(NC[C@H]2CCCCN2)cc1C(=O)N[C@H](C)c1cccc2ccccc12
IC50 [1]: 1400 nM

Cc1ccc(OCCN(C)C)cc1C(=O)N[C@H](C)c1cc(-c2cnn(C)c2)cc(-c2ccn(C)n2)c1
Ki [7]: 40 nM

Cc1ccc(NC(=O)N2CCN(C)CC2)cc1C(=O)N[C@H](C)c1cccc2ccccc12
IC50 [3]: 1600 nM

CCC(C(=O)Nc1cc(NC2CCOC2)ccc1C)n1cc(F)cc2nc(SCc3ccc(F)cc3)nc1-2 (racemic)
IC50 [8]: 1860 nM

Cc1ccc(OCCN(C)C)cc1C(=O)N[C@H](C)c1cc(-c2cccs2)cc(-c2cccs2)c1
IC50 [13]: 60 nM | Ki [11]: 10 nM

CCOc1ccc2ccccc2c1C(C)N1CCC(C(=O)NCc2ccnc(OC)c2)CC1 (racemic)
IC50 [9]: > 98000 nM

Cc1ccc(OCCN(C)C)cc1C(=O)N[C@H](C)c1cc(-c2cnn(C)c2)cc(-c2cnn(C(F)F)c2)c1
Ki [7]: 30 nM

Cc1ccc(NC[C@@H]2CCCN2C)cc1C(=O)N[C@H](C)c1cccc2ccccc12
IC50 [1]: 900 nM

Cc1ccc(OCCN)cc1C(=O)N[C@H](C)c1cc(-c2cccs2)cc(-c2cccs2)c1
IC50 [13]: 60 nM

Cc1ccc(NC[C@@H]2CCCN2)cc1C(=O)N[C@H](C)c1cccc2ccccc12
IC50 [1]: 800 nM

CC(=O)Nc1ccc(C)c(C(=O)NC(C)c2cccc3ccccc23)c1 (configuration not stated)
IC50 [14]: 11000 nM

Cc1ccc(NC(=O)C2(N)CC2)cc1C(=O)N[C@H](C)c1cccc2ccccc12
IC50 [1]: 3800 nM

Cc1ccc(NC(=O)C2CCN2)cc1C(=O)N[C@H](C)c1cccc2ccccc12 (mixture of isomers)
IC50 [2]: 1800 nM

CCn1ccc(-c2cc(-c3cnn(CCOC)c3)cc([C@@H](C)NC(=O)c3cc(OCCN(C)C)ccc3C)c2)n1
Ki [11]: 30 nM | IC50 [15]: 160 nM

Cc1ccc(NC(=O)[C@@H](N)CCN)cc1C(=O)N[C@H](C)c1cccc2ccccc12
IC50 [2]: 1900 nM

Cc1ccc(NC(=O)CN)cc1C(=O)N[C@H](C)c1cc(-c2cccs2)cc(-c2cccs2)c1
IC50 [13]: 140 nM

C[C@H](c1cccc2ccccc12)N(C)Cc1ccc(OCC(N)=O)cc1
IC50 [16]: 2840 nM

Cc1ccc(Nc2ccncc2)cc1C(=O)N[C@H](C)c1cccc2ccccc12
IC50 [3]: 1700 nM

Cc1ccc(N)cc1C(=O)N[C@H](C)c1cc(-c2cccs2)cc(-c2cccs2)c1
IC50 [13]: 170 nM

Cc1ccc(NC[C@@H]2CCCCN2)cc1C(=O)N[C@H](C)c1cccc2ccccc12
IC50 [1]: 900 nM

Cc1ccc(NC(=O)C2CN(C)CCN2)cc1C(=O)N[C@H](C)c1cccc2ccccc12 (mixture of isomers)
IC50 [3]: 1700 nM

Cc1ccc(N)cc1CN[C@H](C)c1cccc2ccccc12
IC50 [14]: 41100 nM

COCn1cc(-c2cc(-c3cnn(C(F)F)c3)cc([C@@H](C)NC(=O)c3cc(OCCN(C)C)ccc3C)c2)cn1
Ki [7]: 80 nM

CCC(C(=O)Nc1cc(NC2CNC2)ccc1C)n1cc(F)cc2nc(SCc3ccc(F)cc3)nc1-2 (racemic)
Kd [5]: 270 nM | IC50 [6]: 200 nM

Cc1ccc(OCCN(C)C)cc1C(=O)N[C@H](C)c1cc(-c2cnn(CCN3CCOCC3)c2)cc(-c2ccn(C)n2)c1
Ki [7]: 40 nM

Cc1ccc(OCCN(C)C)cc1C(=O)N[C@H](C)c1cc(-c2cnn(C)c2)cc(-c2cnn(C3CC3)c2)c1
Ki [7]: 30 nM

CCC(C(=O)Nc1cc(NC2CCOC2)ccc1C)n1cc(Cl)cc2nc(SCc3ccc(F)cc3)nc1-2 (racemic)
IC50 [8]: 160 nM

CCC(C(=O)Nc1cc(NC2CCOCC2)ccc1C)n1cc(F)cc2nc(SCc3ccc(F)cc3)nc1-2 (racemic)
IC50 [8]: 1400 nM

Cc1ccc(NC2CNC2)cc1C(=O)N[C@H](C)c1cc(-c2cccs2)cc(-c2cccs2)c1
IC50 [13]: 171 nM

Cc1ccc(NC(=O)[C@@H](CN)NC[C@@H]2CCCN2)cc1C(=O)N[C@H](C)c1cccc2ccccc12
IC50 [2]: 1900 nM

Cc1ccc(NC(=O)C2CN(C)C2)cc1C(=O)N[C@H](C)c1cccc2ccccc12
IC50 [3]: 1550 nM

Cc1ccc(NC[C@H]2CCCN2)cc1C(=O)N[C@H](C)c1cccc2ccccc12
IC50 [1]: 900 nM

Cc1ccc(NC(=O)N2CCCN(C)CC2)cc1C(=O)N[C@H](C)c1cccc2ccccc12
IC50 [3]: 1500 nM

Cc1ccc(OCCN(C)C)cc1C(=O)N[C@H](C)c1cc(-c2cnn(C)c2)cc(-c2cncs2)c1
Ki [7]: 30 nM

Cc1ccc(NCC2CNC2)cc1C(=O)N[C@H](C)c1cc(-c2cccs2)cc(-c2cccs2)c1
IC50 [13]: 340 nM

Cc1ccc(NCC2CCNC2)cc1C(=O)N[C@H](C)c1cccc2ccccc12 (mixture of isomers)
IC50 [3]: 1500 nM

COc1cc(CNC(=O)C2CC3(C2)CN([C@H](C)c2cccc4ccccc24)C3)ccn1
IC50 [4]: 5400 nM

Cc1ccc(OCCN(C)C)cc1C(=O)N[C@H](C)c1cc(-c2cnn(C)c2)cc(-c2cnn(CCN3CCOCC3)c2)c1
Ki [7]: 20 nM

COc1cc(CNC(=O)C2CCN(C(C)c3c(C)sc4ccccc34)CC2)ccn1 (racemic)
IC50 [9]: > 98000 nM

Cc1ccc(NC(=O)C2CN(C)CCN2C)cc1C(=O)N[C@H](C)c1cccc2ccccc12 (mixture of isomers)
IC50 [2]: 1700 nM

Cc1ccc(NC(N)=O)cc1C(=O)N[C@H](C)c1cccc2ccccc12
IC50 [1]: 3800 nM

CCC(C(=O)Nc1cc(NC2CCOCC2)ccc1C)n1cccc2nc(SCc3ccc(F)cc3)nc1-2 (racemic)
IC50 [8]: 600 nM

Cc1ccc(NC(=O)[C@@H](N)CN)cc1C(=O)N[C@H](C)c1cccc2ccccc12
IC50 [3]: 1600 nM

Cc1ccc(NC(=O)CN2CCCCC2)cc1C(=O)N[C@H](C)c1cccc2ccccc12
IC50 [2]: 1800 nM

Cc1ccc(NCCN2CCCCC2)cc1C(=O)N[C@H](C)c1cc(-c2cccs2)cc(-c2cccs2)c1
IC50 [13]: 110 nM
